Holding throughout (test): relative viability (nuclei count vs DMSO), 5 days (fraction); higher = more cells survive
Compound in experiment [1]: C1CC(C1)(C(=O)O)C(=O)O.[NH2-].[NH2-].[Pt+2] [Carboplatin] + C[C@]1(O)C[C@@H](c2nc(-c3ccc4ccc(-c5ccccc5)nc4c3)c3c(N)nccn32)C1 [Linsitinib] (partner 1 µM)
The method in brief:
(§1)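 After 5 days of treatment, lung cancer cells in 1536-well plates were fixed and stained in a single step (final 0.05% Triton X-100, 1% formaldehyde, 1 ug/ml Hoechst) and their nuclei counted on 4× images. Treatment had been applied by pin tool the day after seeding as one drug alone or as a fixed anchor-drug dose with five library-drug doses (not always all listed) in √10 steps. Relative viability is the nuclei count of treated wells divided by that of vehicle wells, and values are medians of duplicate plates.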

Compound in experiment [2]: CC[C@H](C)N1C=C(C2=C(C=C(C=C21)C3=CN=C(C=C3)N4CCNCC4)C(=O)NCC5=C(C=C(NC5=O)C)C)C [GSK126] + Cc1nc(Nc2ncc(C(=O)Nc3c(C)cccc3Cl)s2)cc(N2CCN(CCO)CC2)n1 [Dasatinib] (partner 0.075 µM)
The method in brief: as §1

Compound in experiment [3]: CC[C@H](C)N1C=C(C2=C(C=C(C=C21)C3=CN=C(C=C3)N4CCNCC4)C(=O)NCC5=C(C=C(NC5=O)C)C)C [GSK126] + COc1cccc2cc(-c3nc([C@H]4CC[C@H](C(=O)O)CC4)n4ncnc(N)c34)[nH]c12 [OSI-027] (partner 0.5 µM)
The essentials:
as §1

Compound in experiment [4]: C1CC(C1)(C(=O)O)C(=O)O.[NH2-].[NH2-].[Pt+2] [Carboplatin] + Cc1cc(Nc2cc(N3CCN(C)CC3)nc(Sc3ccc(NC(=O)C4CC4)cc3)n2)n[nH]1 [Tozasertib] (partner 0.1 µM)
The essentials: as §1

Turning to UMC-11, the relative viability is 1.02 in experiment [1] (first compound 0.08 µM); 1.01 in experiment [1] (first compound 0.253 µM); 0.928 in experiment [1] (first compound 0.8 µM); 0.98 in experiment [1] (first compound 2.53 µM); 0.837 in experiment [1] (first compound 8 µM); 0.512 in experiment [2] (first compound 0.08 µM). For the same cell line, the relative viability in experiment [2] (first compound 0.253 µM) amounted to 0.475; in experiment [2] (first compound 0.8 µM), 0.443; in experiment [2] (first compound 2.53 µM), 0.417; in experiment [2] (first compound 8 µM) it was 0.437; in experiment [3] (first compound 0.08 µM), 0.563; in experiment [3] (first compound 0.253 µM), 0.522. The relative viability in experiment [3] (first compound 0.8 µM) was 0.484; in experiment [3] (first compound 2.53 µM), 0.44; in experiment [3] (first compound 8 µM), 0.43; in experiment [4] (first compound 0.08 µM), 0.22; in experiment [4] (first compound 0.253 µM), 0.208; in experiment [4] (first compound 0.8 µM) it was 0.207. Also, the relative viability in experiment [4] (first compound 2.53 µM) amounted to 0.193; in experiment [4] (first compound 8 µM) it was 0.212.

These data come from the supplement of paper PMC10307832.
